Reference: patent US20170027893A1, “THIOSEMICARBAZONES INHIBITORS OF LYSOPHOSPHATIDIC ACID ACYLTRANSFERASE AND USES THEREOF” (H. LEE CANCER CENTER AND RESEARCH INSTITUTE, INC., priority 2014, published 2017)
Like-named read-outs stand apart in the source and are kept apart here.

Legend:
LPAAT-β [1] = target: T1, LPAAT-β (Homo sapiens, UniProt O15120); details: previously reported inhibitors; cited from earlier work
T1 sequence (O15120 24-278): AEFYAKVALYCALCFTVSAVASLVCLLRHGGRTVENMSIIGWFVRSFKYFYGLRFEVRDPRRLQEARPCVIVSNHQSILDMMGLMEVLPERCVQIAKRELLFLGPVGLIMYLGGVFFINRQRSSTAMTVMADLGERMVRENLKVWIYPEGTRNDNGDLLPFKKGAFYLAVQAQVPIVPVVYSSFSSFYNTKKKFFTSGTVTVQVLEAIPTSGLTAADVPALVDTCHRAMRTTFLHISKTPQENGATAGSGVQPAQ

[2] = test system: MiaPaCa2 human pancreatic cancer cells; assay: inhibition of proliferation, Alamar blue, 72 h; assay type: cell-based
Procedure: The ability of selected compounds from the libraries 6, 15 and 19 to inhibit the growth of MiaPaCa2 human pancreatic cancer cells was investigated. Human pancreatic carcinoma (MiaPaCa2) cells were plated at a low confluency into 96-well tissue culture-treated plates. After allowing cells to attach and grow overnight at 37 degrees in a 5% CO2 incubator, growth medium was replaced with fresh medium (100 μl/well) containing compounds in a range from 0.1-100 μM. All treatments were made from 500× stock solutions in DMSO, and the control wells received an equivalent amount of DMSO in medium. After 72 hours of growth in the presence of the compounds, Alamar blue was added to the wells according to the manufacturer's instructions (Life Technologies, Grand Island, N.Y.) and cells were incubated in its presence for 2-3 hours. Fluorescence readings were performed using a Biotek Synergy II plate reader with […] wavelengths of 530/590 nm. […] Calculated IC50s are representative of at least three independent experiments.

LPAAT-β [3] = target: T1, LPAAT-β; assay: DTNB (Ellman's reagent) 96-well plate screening assay of LPAAT-β enzymatic activity; assay type: biochemical; parameters: The assay utilizes full-length, recombinant, baculovirus-produced LPAAT-β; made in house
Procedure: Screening with a modified screening assay in 96-well plate format for LPAAT-β enzymatic activity was performed as reported by Aguado and Campbell (Aguado et al., Characterization of a human lysophosphatidic acid acyltransferase that is encoded by a gene located in the class III region of the human major histocompatibility complex. J. Biol. Chem. 1998, 273, 4096-105).
The assay utilizes full-length, recombinant, baculovirus-produced LPAAT-β, which catalyzes the production of dioleoyl-[…] from the enzymatic substrates oleoyl-lysophosphatidic acid (LPA) and oleoyl-coenzyme A (Scheme 2). The ability of the compound to inhibit the LPAAT-β activity was assayed by the colorimetric measurement of the reaction of the free thiol group of the released coenzyme A with Ellman's reagent [5,5′-dithiobis-(2-nitrobenzoic acid) or DTNB] (Riener et al., Quick measurement of protein sulfhydryls with Ellman's reagent and with 4,4′-dithiodipyridine. Anal. Bioanal. Chem. 2002, 373, 266-76). […] A hit identified from the Life Chemicals library 6a (IC50 100 nM) was selected for further investigation.

LPAAT-β [4] = target: T1, LPAAT-β; assay: secondary thin layer chromatography (TLC) assay measuring fluorescent PA; assay type: biochemical; parameters: The assay utilizes full-length, recombinant, baculovirus-produced LPAAT-β; made in house
MDAMB-231 = assay: anchorage-independent growth in agar; assay type: cell-based, human; details: MDAMB-231, 2-4 weeks in agar
Procedure: (§1) FIG. 3. LPAAT-β inhibitors block anchorage-independent growth of cancer cell lines. Human pancreatic (MiaPaCa2 and Panc-1), ovarian (OVCAR-5) and breast cancer (MDAMB-231) cells were plated into 3% agar containing LPAAT-β inhibitors and allowed to grow for 2-4 weeks in the presence of the compounds. […] This effect of the small molecules is similar to the effect of knockdown with LPAAT-β siRNA (nt, non-targeting; LP-1, LPAAT-β).

MiaPaCa2 = assay: anchorage-independent growth in agar; assay type: cell-based, human; details: MiaPaCa2, 2-4 weeks in agar
Procedure: as §1

OVCAR-5 = assay: anchorage-independent growth in agar; assay type: cell-based, human; details: OVCAR-5, 2-4 weeks in agar
Procedure: as §1

Panc-1 [5] = assay: anchorage-independent growth in agar; assay type: cell-based, human; details: Panc-1, 2-4 weeks in agar
Procedure: as §1

[6] = test system: mTOR effector protein phosphorylation in MiaPaCa2 cells; assay: mTOR effector protein phosphorylation, Western blotting; assay type: cell-based; details: Homo sapiens
Source text: FIG. 4. Inhibition of mTOR effector protein phosphorylation by LPAAT-β inhibitor.

[7] = test system: Caspase 3 activity in IGROV-1 cells; assay: induction of apoptosis, cleavage of fluorescent Caspase 3 substrate; assay type: cell-based, human; details: IGROV-1, 48 hr
Procedure: FIGS. 5A-5B. Induction of apoptosis with 19s treatment in pancreatic and ovarian cancer cell lines. Human pancreatic (MiaPaCa2) and ovarian (IGROV-1) cells were treated for 48 hr with LPAAT-b inhibitors then harvested and the samples assayed for their ability to cleave a fluorescent Caspase 3 specific substrate, Av-DEVD-AMC (A) In addition, the samples were run on SDS-PAGE gels and Western blotted to assess the presence of the activated form of Caspase 3 (inset). MiaPaCa2 cells show 3.5-fold and IGROV-1 cells show 25-fold activation of Caspase 3 activity after treatment with 19s compared to a vehicle-treated control sample. (B) PARP cleavage in MiaPaCa2 cells treated for 72 hr with 10 μM 19s and 19p.

[8] = test system: IGROV-1 ovarian cancer cells; assay: combination with 5-FU, proliferation by Alamar blue, isobolograms; assay type: cell-based, human; details: IGROV-1, 72 hr, simultaneous combination
Procedure: (§2) FIG. 6. Synergistic effect of YG9-095-3 with 5-FU in IGROV-1 ovarian cancer cells. Human ovarian and pancreatic carcinoma cell lines (IGROV-1 and OVCAR-5; Panc-1) were treated for 72 hr with 19s, 5-FU, and the two drugs in simultaneous combination. […] However, in OVCAR-5 cells, at low concentration there appears to be an additive effect of the two drugs on proliferation, but the effect becomes antagonistic at the higher concentrations of YG9-095-3.

OVCAR-5 cells = assay: as above; assay type: cell-based, human; details: OVCAR-5, 72 hr
Procedure: as §2

Panc-1 [9] = assay: as above; assay type: cell-based, human; details: Panc-1, 72 hr
Procedure: as §2

total cellular PA levels = total cellular PA levels measured by mass spectroscopy in intact cells; assay type: cell-based
Source text: Inhibition is by more than 50%. Inhibition is greater than that seen with a known DAGK inhibitor. DAGK is an enzyme that can also increase PA levels.

mTOR signaling = assay: inhibition of mTOR signaling (FIG. 20); assay type: cell-based
Source text: P-p7056k and p-4EBP1 are decreased by treatment at 3 micromolar or higher.

RalA = RalA activation (FIG. 21); assay type: cell-based
Source text: Therefore this inhibitor can target the RalA effector arm as well as mTOR which few compounds can do.

pancreatic cancer cells [10] = assay: cell cycle progression (FIG. 22); assay type: cell-based
pancreatic cancer cells [11] = assay: combination treatment with regorafenib (FIG. 23); assay type: cell-based
Source text: This is important for the use of YG9-095-3 in combination with standard therapy for Kras mutant colon cancer.

[12] = body fat percentage measured by MRI in treated mice; assay type: in vivo; details: after 20 days of treatment
Source text: YG9-095-3 can be a useful compound for the treatment of obesity as well as cancer.

[13] = Table 4, read-out: IC50 (μm) (DTNB assay) (converted)
[14] = read-out: IC50 (μM) (DTNB assay) (converted)

| SMILES | in vitro activity against LPAAT-β enzyme activity, in words (LPAAT-β [1]) | IC50 [2] [µM] | IC50 (LPAAT-β [3]; [13]) [µM] | IC50 (LPAAT-β [3]; [14]) [µM] | IC50 (LPAAT-β [4]) [µM] | IC50 (LPAAT-β [4]; Table 4) [µM] | IC50 ([2]; Homo sapiens, MIA PaCa-2) [µM] | also measured |
| --- | --- | --- | --- | --- | --- | --- | --- | --- |
| CCOc1ccc(Cl)cc1-c1cc(Nc2ccc(Cl)cc2)nc(N)n1 [Compound 1] | potent in vitro activity | – | – | – | – | – | – | – |
| CCOc1ccc(Cl)cc1-c1cc(N)nc(Nc2ccc(Cl)cc2)c1 [Compound 2] | potent in vitro activity | – | – | – | – | – | – | – |
| C#CCOC(=O)Nc1ccc(Cl)c(-c2nc3cc(Cl)ccc3o2)c1 [Compound 3] | potent anti-enzymatic activity | – | – | – | – | – | – | – |
| C=CCc1cc(-c2ccc(Br)cc2)cc(C(C)=NNC(N)=S)c1O [Compound 19o] | – | 5.8 ± 1.6 | 0.18 | 0.18 ± 0.07 | 4.2 ± 1.2 | 4.2 | – | – |
| C=CCc1cc(-c2ccc(Cl)cc2)cc(C(C)=NNC(N)=S)c1O [Compound 19p] | – | 7.4 ± 2.3 | 0.32 ± 0.07 | 0.32 ± 0.07 | 2.5 ± 1.4 | 2.5 ± 1.4 | – | – |
| C=CCc1cc(-c2ccc(Cl)cc2Cl)cc(C(C)=NNC(N)=S)c1O [Compound 19r] | – | – | 0.52 ± 0.23 | 0.52 ± 0.23 | 2.1 ± 0.9 | 2.1 ± 0.9 | 7.6 ± 0.9 | – |
| C=CCc1cc(-c2ccc(Cl)c(Cl)c2)cc(C(C)=NNC(N)=S)c1O [Compound 19s] | – | – | 0.36 ± 0.1 | 0.36 ± 0.1 | 2.4 ± 0.7 | 2.4 ± 0.7 | 6.3 ± 2.9 | inhibition of anchorage-independent growth (MDAMB-231): potent inhibition; inhibition of anchorage-independent growth (MiaPaCa2): potent inhibition; inhibition of anchorage-independent growth (OVCAR-5): potent inhibition; inhibition of anchorage-independent growth (Panc-1 [5]): potent inhibition; inhibition at 10 µM ([6]; MIA PaCa-2, read-out: inhibition of P-4E-BP 1): 76%; inhibition at 10 µM ([6]; MIA PaCa-2, read-out: inhibition of P-AKT): 88%; inhibition at 10 µM ([6]; MIA PaCa-2, read-out: inhibition of P-p70): 43%; activation of Caspase 3 activity compared to vehicle-treated control [7]: 25 fold; combination effect with 5-FU on cellular proliferation [8]: moderately synergistic; combination effect with 5-FU on cellular proliferation (OVCAR-5 cells; at low concentration): additive; combination effect with 5-FU on cellular proliferation (OVCAR-5 cells; at the higher concentrations of YG9-095-3): antagonistic; combination effect with 5-FU on cellular proliferation (Panc-1 [9]): mildly additive to antagonistic; cell membrane permeability (total cellular PA levels; concluded from treatment of intact cells): cell membrane permeable; inhibition (reduction) of total cellular PA levels (total cellular PA levels; mass spectroscopy, intact cells): more than 50%; concentration at which P-p70S6k and p-4EBP1 are decreased (mTOR signaling): ≥ 3 µM; inhibition of RalA activation (RalA): 50%; effect on cell cycle progression (pancreatic cancer cells [10]): S-phase arrest and accumulation; rescue of cells from the cell cycle effect by exogenous PA (pancreatic cancer cells [10]): can be rescued; combination effect with regorafenib (pancreatic cancer cells [11]): additive to synergistic inhibition; decrease in body fat percentage compared to vehicle treated controls [12]: 50% |
| C=CCc1cc(-c2cc(Cl)cc(Cl)c2)cc(C(C)=NNC(N)=S)c1O [Compound 19t] | – | – | 0.57 ± 0.27 | 0.57 ± 0.27 | 17 ± 7.3 | 17 ± 7.3 | 4.9 ± 2 | – |
| C=CCc1cc(-c2cccc(C#N)c2)cc(C(C)=NNC(N)=S)c1O [Compound 19v] | – | – | 0.28 ± 0.02 | 0.28 ± 0.02 | > 10 | > 10 | 7.8 ± 2.7 | – |
| C=CCc1cc(-c2ccc(C)c(Cl)c2)cc(C(C)=NNC(N)=S)c1O [Compound 19w] | – | 7.2 ± 3.1 | 0.67 ± 0.16 | 0.67 ± 0.16 | 9.2 ± 4.2 | 9.2 ± 4.2 | – | – |
